Experimental data published in patent US20220378707A1, “1-(((2S,3S,4S)-3-ETHYL-4-FLUORO-5-OXOPYRROLIDIN-2-YL)METHOXY)-7-METHOXYISOQUINOLINE-6-CARBOXAMIDE COMBINATIONS AND ORAL DOSAGE FORMS” (Pfizer Inc., priority 2019, published 2022).
Entries after “also recorded” stand apart in the source; their conditions may differ.

What was measured:
Type in all cases: cell-based, human
[1] = tested on: HUVEC+(IL-4 and histamine); test: BioMAP 4H system; conditions: Th2 vascular inflammation, tofacitinib 37-1000 nM
Excerpt: (§1) The BioMAP systems consist of human primary cell-based systems designed to model different aspects of the human body in an in vitro format. The 12 systems tested characterized the test compounds across a broad set of systems modeling various human disease states. BioMAP systems were constructed with one or more primary cell types from healthy human donors, with stimuli (such as cytokines or growth factors) added to capture relevant signaling networks that naturally occur in human tissue or pathological conditions. Vascular biology was modeled in both a Th1 (3C system) and a Th2 (4H system) inflammatory environment, as well as in a Th1 inflammatory state specific to arterial smooth muscle cells (CASM3C system). […]
(§2) Systems were derived from either single cell types or co-culture systems. […] Test agents were prepared in DMSO (final concentration <0.1%) and were added 1 hour before stimulation, and remained in culture for 24 hours or as otherwise indicated (48-hrs, MyoF system; 72-hrs, BT system (soluble readouts); 168-hrs, BT system (secreted IgG)). […] Soluble factors from supernatants were quantified using either HTRF® detection, bead-based multiplex immunoassay or capture ELISA. Overt adverse effects of test agents on cell proliferation and viability (cytotoxicity) were detected by sulforhodamine B (SRB) staining, for adherent cells, and alamarBlue® reduction for cells in suspension.

[2] = tested on: bronchial epithelial cells and HDFn+(TNFα and IL-4); test: BioMAP BF4T system; conditions: Th2 airway inflammation; tofacitinib 37-1000 nM
Excerpt: as §1, §2

[3] = tested on: keratinocytes and HDFn+(IL-1β, TNFα and IFNγ); test: BioMAP KF3CT system; conditions: Th1 cutaneous inflammation; tofacitinib 37-1000 nM
Excerpt: as §1, §2

C[C@@H]1CCN(C(=O)CC#N)C[C@@H]1N(C)c1ncnc2[nH]ccc12 [tofacitinib, 3-((3R,4R)-4-Methyl-3-(methyl(7H-pyrrolo[2,3-d]pyrimidin-4-yl)amino)piperidin-1-yl)-3-oxopropanenitrile]
Inhibition of biomarker readouts in the 4H system [1]: MCP-1 and Eto3 and VCAM-1 and P-selectin | Inhibition of biomarker readouts in the 4H system ([1]; listed as Tofacitinib): active over all tested concentrations; also recorded: MCP-1, Eot3, VCAM-1, P-selectin | Increased biomarker readouts in the BF4T system [2]: MMP9 | Inhibition of biomarker readouts in the BF4T system [2]: active over all tested concentrations; also recorded: Eot3, and VCAM-1 | Inhibition of biomarker readouts in the KF3CT system [3]: MCP-1
